Where two headings read alike, the source gives them in different places.
Legend:
[1] = target: FAAH (Homo sapiens (Human), UniProt O00519); assay: biochemical; conditions: for inhibition at 1 µM: read-out: FAAH (human) % inh. 1 μM
[2] = target: MAGL (Homo sapiens (Human), UniProt Q99685); assay: biochemical; conditions: for inhibition at 1 µM: read-out: MAGL (human) % inh. 1 μM

| SMILES | inhibition at 1 µM [1] | IC50 ([1]; read-out: FAAH (human) IC50) | IC50 [2] | inhibition at 1 µM [2] | IC50 ([2]; read-out: MAGL (human) IC50) | IC50 [1] |
| --- | --- | --- | --- | --- | --- | --- |
| Cc1ncc(C#N)cc1OC(=O)N1CCN(Cc2cccc(C(F)(F)F)c2C)C[C@H]1C [Example 21, 5-Cyano-2-methylpyridin-3-yl (R)-2-methyl-4-(2-methyl-3-(trifluoromethyl)benzyl)piperazine-1-carboxylate] | > 75% | 100 to 1000 nM | 1000 to 10000 nM | 25 to 50% |  |  |
| NC(=O)c1cncc(OC(=O)N2CCC3(CCN(Cc4cc(Cl)cc(C(F)(F)F)c4)C3)CC2)c1 [Example 3, 5-Carbamoylpyridin-3-yl 2-(3-chloro-5-(trifluoromethyl)benzyl)-2,8-diazaspiro[4.5]decane-8-carboxylate] | > 75% | < 100 nM |  | > 75% | < 100 nM |  |
| O=C(Oc1cncc(C(F)(F)F)c1)N1CCC2(CC1)CC(Oc1ccc(-c3ccccc3)cc1)C2 [Example 28, 5-(Trifluoromethyl)pyridin-3-yl 2-([1,1′-biphenyl]-4-yloxy)-7-azaspiro[3.5]nonane-7-carboxylate] | > 75% | < 100 nM |  | > 75% | < 100 nM |  |
| CC(C)Oc1cc(CN2CCN(C(=O)Oc3cncc(C(N)=O)c3)[C@H](C)C2)ccc1Cl [Example 56, (R)-5-Carbamoylpyridin-3-yl 4-(4-chloro-3-isopropoxybenzyl)-2-methylpiperazine-1-carboxylate] | > 75% | 100 to 1000 nM |  | > 75% | 100 to 1000 nM |  |
| CC(C)Oc1cccc(CN2CC3(CCN(C(=O)Oc4cncc(C(F)(F)F)c4)CC3)C2)c1 [Example 22, 5-(Trifluoromethyl)pyridin-3-yl 2-(3-isopropoxybenzyl)-2,7-diazaspiro[3.5]nonane-7-carboxylate] | 50 to 75% |  |  | 25 to 50% |  |  |
| C[C@@H]1CN(Cc2cccc(C(F)(F)F)c2Cl)CCN1C(=O)Oc1cncc(C(N)=O)c1 [Example 66, (R)-5-Carbamoylpyridin-3-yl 4-(2-chloro-3-(trifluoromethyl)benzyl)-2-methylpiperazine-1-carboxylate] | > 75% | < 100 nM |  | > 75% | < 100 nM |  |
| CC1CCCN1c1ccc(CN2CCN(C(=O)Oc3cncc(C(N)=O)c3)CC2)c(OC(F)(F)F)c1 (stereo not drawn) [Example 17, 5-Carbamoylpyridin-3-yl 4-(4-(2-methylpyrrolidin-1-yl)-2-(trifluoromethoxy)benzyl)piperazine-1-carboxylate] | > 75% | 100 to 1000 nM | < 100 nM | > 75% |  |  |
| O=C(Oc1cncc(C(F)(F)F)c1)N1CCC2(CC1)CC(Oc1cc(Cl)cc(Cl)c1)C2 [Example 25, 5-(Trifluoromethyl)pyridin-3-yl 2-(3,5-dichlorophenoxy)-7-azaspiro[3.5]nonane-7-carboxylate] | > 75% | 100 to 1000 nM | < 100 nM | > 75% |  |  |
| O=C(Oc1cncc(C(F)(F)F)c1)N1CCC2(CC1)CC(Oc1cccc(C(F)(F)F)c1)C2 [Example 1, 5-(Trifluoromethyl)pyridin-3-yl 2-(3-(trifluoromethyl)phenoxy)-7-azaspiro[3.5]nonane-7-carboxylate] | > 75% | < 100 nM |  | > 75% | < 100 nM |  |
| O=C(Oc1cncc(C(F)(F)F)c1)N1CCC2(CC1)CN(Cc1cccc(Oc3ccc(C(F)(F)F)nc3)c1)C2 [Example 39, 5-(Trifluoromethyl)pyridin-3-yl 2-(3-((6-(trifluoromethyl)pyridin-3-yl)oxy)benzyl)-2,7-diazaspiro[3.5]nonane-7-carboxylate] | > 75% | 100 to 1000 nM |  | > 75% | 100 to 1000 nM |  |
| O=C(Oc1cncc(C(F)(F)F)c1)N1CCC2(CC1)CN(Cc1cccc(Oc3cc(Cl)cc(Cl)c3)c1)C2 [Example 35, 5-(Trifluoromethyl)pyridin-3-yl 2-(3-(3,5-dichlorophenoxy)benzyl)-2,7-diazaspiro[3.5]nonane-7-carboxylate] | > 75% |  |  | > 75% |  |  |
| NC(=O)c1cncc(OC(=O)N2CCC3(CC2)CN(Cc2cccc(Oc4ccc(Cl)cc4)c2)C3)c1 [Example 5, 5-Carbamoylpyridin-3-yl 2-(3-(4-chlorophenoxy)benzyl)-2,7-diazaspiro[3.5]nonane-7-carboxylate] | > 75% | < 100 nM |  | > 75% | < 100 nM |  |
| Cc1c(CN2CCN(C(=O)Oc3cncc(C(N)=O)c3)[C@H](C)C2)cccc1C(F)(F)F [Example 58, (R)-5-Carbamoylpyridin-3-yl 2-methyl-4-(2-methyl-3-(trifluoromethyl)benzyl)piperazine-1-carboxylate] | > 75% |  |  | > 75% | 100 to 1000 nM | < 100 nM |
| O=C(Oc1cncc(C(F)(F)F)c1)N1CCC2(CC1)CN(Cc1cccc(Oc3ccccc3)c1Cl)C2 [Example 41, 5-(Trifluoromethyl)pyridin-3-yl 2-(2-chloro-3-phenoxybenzyl)-2,7-diazaspiro[3.5]nonane-7-carboxylate] | > 75% |  |  | > 75% |  |  |
| CC(C)Oc1cc(CN2CCN(C(=O)Oc3cncc(C(N)=O)c3)[C@@H](C)C2)ccc1Cl [Example 57, (S)-5-Carbamoylpyridin-3-yl 4-(4-chloro-3-isopropoxybenzyl)-2-methylpiperazine-1-carboxylate] |  |  |  | > 75% |  |  |
| C[C@@H]1CN(Cc2cccc(Oc3ncccn3)c2)CCN1C(=O)Oc1cncc(C#N)c1 [Example 84, 5-Cyanopyridin-3-yl (R)-2-methyl-4-(3-(pyrimidin-2-yloxy)benzyl)piperazine-1-carboxylate] | > 75% | 100 to 1000 nM | < 100 nM | > 75% |  |  |
| O=C(Oc1cncc(C(F)(F)F)c1)N1CCC2(CC1)CN(Cc1cccc(Oc3ccc(C(F)(F)F)cn3)c1)C2 [Example 37, 5-(Trifluoromethyl)pyridin-3-yl 2-(3-((5-(trifluoromethyl)pyridin-2-yl)oxy)benzyl)-2,7-diazaspiro[3.5]nonane-7-carboxylate] | > 75% |  |  | > 75% |  |  |
| O=C(Oc1cncc(C(F)(F)F)c1)N1CCC2(CC1)CN(Cc1ccc(Cl)c(Oc3ccccc3)c1Cl)C2 [Example 14, 5-(Trifluoromethyl)pyridin-3-yl 2-(2,4-dichloro-3-phenoxybenzyl)-2,7-diazaspiro[3.5]nonane-7-carboxylate] | 50 to 75% |  |  | > 75% |  |  |
| N#Cc1cncc(OC(=O)N2CCN(Cc3cccc(Oc4ncccn4)c3)CC2)c1 [Example 50, 5-Cyanopyridin-3-yl 4-(3-(pyrimidin-2-yloxy)benzyl)piperazine-1-carboxylate] | > 75% | 100 to 1000 nM | < 100 nM | > 75% |  |  |
| O=C(Oc1cncc(C(F)(F)F)c1)N1CCN(Cc2cc(Cl)ccc2C(F)(F)F)CC1 [Example 44, 5-(Trifluoromethyl)pyridin-3-yl 4-(5-chloro-2-(trifluoromethyl)benzyl)piperazine-1-carboxylate] | > 75% | 100 to 1000 nM |  | > 75% | 100 to 1000 nM |  |
| O=C(Oc1cncc(C(F)(F)F)c1)N1CCC2(CC1)CN(Cc1cc(Cl)cc(Oc3nc4ccccc4s3)c1)C2 [Example 23, 5-(Trifluoromethyl)pyridin-3-yl 2-(3-(benzo[d]thiazol-2-yloxy)-5-chlorobenzyl)-2,7-diazaspiro[3.5]nonane-7-carboxylate] | > 75% | < 100 nM |  | > 75% | < 100 nM |  |
| O=C(Oc1cncc(C(F)(F)F)c1)N1CCC2(CC1)CN(Cc1cccc(Oc3ccc(Cl)cc3)c1)C2 [Example 31, 5-(Trifluoromethyl)pyridin-3-yl 2-(3-(4-chlorophenoxy)benzyl)-2,7-diazaspiro[3.5]nonane-7-carboxylate] |  |  |  |  | 100 to 1000 nM | < 100 nM |
| O=C(Oc1cncc(C(F)(F)F)c1)N1CCC2(CC1)CN(Cc1cccc(Oc3cncnc3)c1)C2 [Example 11, 5-(Trifluoromethyl)pyridin-3-yl 2-(3-(pyrimidin-5-yloxy)benzyl)-2,7-diazaspiro[3.5]nonane-7-carboxylate] |  | 100 to 1000 nM |  |  | 100 to 1000 nM |  |
| O=C(Oc1cncc(C(F)(F)F)c1)N1CCC2(CC1)CC(Oc1cc(Cl)ccc1Cl)C2 [Example 27, 5-(Trifluoromethyl)pyridin-3-yl 2-(2,5-dichlorophenoxy)-7-azaspiro[3.5]nonane-7-carboxylate] | > 75% |  |  | > 75% |  |  |
| O=C(Oc1cncc(C(F)(F)F)c1)N1CCC2(CC1)CN(Cc1ccc(Oc3ccc(Cl)cc3)cc1)C2 [Example 30, 5-(Trifluoromethyl)pyridin-3-yl 2-(4-(4-chlorophenoxy)benzyl)-2,7-diazaspiro[3.5]nonane-7-carboxylate] |  |  |  |  | 100 to 1000 nM | 1000 to 10000 nM |
| O=C(Oc1cncc(C(F)(F)F)c1)N1CCC2(CC1)CN(Cc1ccc(Oc3ccccc3Cl)cc1)C2 [Example 8, 5-(Trifluoromethyl)pyridin-3-yl 2-(4-(2-chlorophenoxy)benzyl)-2,7-diazaspiro[3.5]nonane-7-carboxylate] |  | 100 to 1000 nM | < 100 nM |  |  |  |
| O=C(Oc1cncc(C(F)(F)F)c1)N1CCC2(CC1)CC(Oc1cccc(COc3ccc(Cl)cc3)c1)C2 [Example 29, 5-(Trifluoromethyl)pyridin-3-yl 2-(3-((4-chlorophenoxy)methyl)phenoxy)-7-azaspiro[3.5]nonane-7-carboxylate] | > 75% |  |  | > 75% | 100 to 1000 nM | < 100 nM |
| CC(C)Oc1cc(Cl)cc(CN2CC3(CCN(C(=O)Oc4cncc(C(F)(F)F)c4)CC3)C2)c1 [Example 24, 5-(Trifluoromethyl)pyridin-3-yl 2-(3-chloro-5-isopropoxybenzyl)-2,7-diazaspiro[3.5]nonane-7-carboxylate] | > 75% |  |  | > 75% |  |  |
